The subject of assay [1] is MDA-MB-231 xenografts. Kind of assay: Treatment of MDA-MB-231 xenografts in NCR nu/nu mice. Format: in vivo, mouse. The note with it: 1.0 mg/kg (normalized to platinum or TMV content), weekly intravenous bolus. The procedure:
FIGS. 7A-C show treatment of MDA-MB-231 xenografts in an athymic mouse model. […] Tumor volumes were monitored daily, and total volume was normalized to initial tumor size at time of treatment. Each treatment group consists of 5 animals (n=5); *indicates p<0.05.
All animal studies were carried using IACUC-approved procedures. […] The dosage was normalized to platinum or TMV content.

The test system of assay [2] is A2780/CP70 (ovarian cancer resistant to cisplatin). In words: MTT assay, ovarian cancer cells resistant to cisplatin. The note with it: ovarian cancer cells resistant to cisplatin treatment. Type of assay: cell-based, human. A general note: Tetrazolium assays rely on reduction of a dye to a coloured formazan, in cell work by metabolically active cells.
Protocol: (§1) The assay was performed as per manufacturer's recommendation; a BioTek Synergy HT multidetection microplate reader was used for read-out.
Assay [3] deals with OV81.2 (ovarian cancer, primary patient cells). In words: MTT assay, primary patient ovarian cancer cells. Type of assay: cell-based, human. As to conditions: primary patient cells OV81.2.
Protocol: as §1

Regarding `N.N.[Cl][Pt][Cl]` [cisplatin], in assay [1], the “tumor growth / treatment effect” value is “ineffective”.
In the case of phenanthriplatin, the efficacy versus cisplatin result in assay [2] is “enhanced efficacy”; in assay [3], “Enhanced efficacy”. Also, the “tumor growth / treatment effect” value in assay [1] is on record as “ineffective”.
